According to patent US8575156B2, “Cyclic inhibitors of 11β-hydroxysteroid dehydrogenase 1” (Vitae Pharmaceuticals, Inc., priority 2007, dated 2013):
pIC50: −log10 of the molar value. Like-named read-outs stand apart in the source and are kept apart here.

What was measured:
11β-HSD1 [1] = target: T1, 11β-HSD1 (Homo sapiens, UniProt P28845); settings: for pIC50: read-out: IC50 Range
11β-HSD1 [2] = target: T1, 11β-HSD1; assay: biochemical; settings: for inhibition at 0.1111 µM: read-out: Average % inhibition at 111.1 nM, Biological Test Example 1, 111.1 nM compound; for pIC50: IC50 Range, Biological Test Example 1, microsomes from CHO cells overexpressing human 11β-HSD1; for inhibition at 0.1 µM: read-out: Average % inhibition at 100 nM, Biological Test Example 1, 100 nM compound
[3] = Biological Test Example 1, 100 nM compound, 0.1 µM
[4] = Biological Test Example 1, microsomes from CHO cells overexpressing human 11β-HSD1
[5] = Biological Test Example 1, 111.1 nM compound, 0.1111 µM
[6] = Biological Test Example 1, 100 nM, 0.1 µM

T1 sequence (P28845 whole entry): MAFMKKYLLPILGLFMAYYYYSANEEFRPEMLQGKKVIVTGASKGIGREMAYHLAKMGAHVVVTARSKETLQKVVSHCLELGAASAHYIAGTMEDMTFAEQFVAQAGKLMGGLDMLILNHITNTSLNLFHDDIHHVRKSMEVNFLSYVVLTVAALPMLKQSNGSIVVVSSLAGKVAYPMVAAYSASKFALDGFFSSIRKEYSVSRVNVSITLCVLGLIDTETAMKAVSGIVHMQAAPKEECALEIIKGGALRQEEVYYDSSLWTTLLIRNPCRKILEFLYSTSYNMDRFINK

| Average % inhibition at 100 nM (11β-HSD1 [1]; [3]) [%] | pIC50 (11β-HSD1 [1]; [4]) | pIC50 (11β-HSD1 [2]) | Compound | further results |
| --- | --- | --- | --- | --- |
| 90.8 | > 7.00 | – | C[C@@H](c1ccc(-c2ccc(F)cc2F)cc1)N1CC[C@](CC(O)CO)(c2ccc(F)cc2)OC1=O (single isomer, unassigned) [EXAMPLE 52 Isomer 2] | inhibition at 0.1111 µM (11β-HSD1 [2]): 97% |
| – | – | > 7.00 | O=C1OC(CCO)(c2ccccc2)CCN1c1ccc(F)c(-c2ccc(F)cc2)c1 (single isomer, unassigned) [EXAMPLE 96 Isomer 1] | Average % inhibition at 111.1 nM (11β-HSD1 [1]; [5]): 98.5%; inhibition at 0.1 µM (11β-HSD1 [2]): 88.3% |
| – | – | < 6.00 | O=C1OC(CCO)(c2ccccc2)CCN1c1ccc(F)c(-c2ccc(F)cc2)c1 (single isomer, unassigned) [EXAMPLE 96 Isomer 2] | Average % inhibition at 111.1 nM (11β-HSD1 [1]; [5]): 9.7% |
| – | – | 6.00 to 7.00 | O=C1OC(CCO)(c2ccccc2F)CCN1c1cccc(-c2ccc(F)cc2)n1 (single isomer, unassigned) [EXAMPLE 104 Isomer 1] | Average % inhibition at 111.1 nM (11β-HSD1 [1]; [5]): 44.3% |
| – | – | > 7.00 | O=C1OC(CCO)(c2ccccc2F)CCN1c1cccc(-c2ccc(F)cc2)n1 (single isomer, unassigned) [EXAMPLE 104 Isomer 2] | Average % inhibition at 111.1 nM (11β-HSD1 [1]; [5]): 98.1% |
| 17.4 | – | < 6.00 | C[C@@H](c1ccccc1)N1CCC(CO)(c2ccc(F)cc2)OC1=O (single isomer, unassigned) [EXAMPLE 114 Isomer 1] | – |
| 66.6 | – | > 7.00 | C[C@@H](c1ccccc1)N1CCC(CO)(c2ccc(F)cc2)OC1=O (single isomer, unassigned) [EXAMPLE 114 Isomer 2] | – |
| – | – | 6.00 to 7.00 | C=CCC1(c2ccc(F)cc2)CCN([C@@H](C)c2ccc(Br)cn2)C(=O)O1 (single isomer, unassigned) [EXAMPLE 128 Isomer 1] | Average % inhibition at 111.1 nM (11β-HSD1 [1]; [5]): 27.5%; inhibition at 0.1 µM (11β-HSD1 [2]): 26.1% |
| – | – | < 6.00 | C=CCC1(c2ccc(F)cc2)CCN([C@@H](C)c2ccc(Br)cn2)C(=O)O1 (single isomer, unassigned) [EXAMPLE 128 Isomer 2] | Average % inhibition at 111.1 nM (11β-HSD1 [1]; [5]): 6.5% |
| – | > 7.00 | – | C=CCC1(c2ccc(F)cc2)CCN([C@@H](CC)c2ccc(Br)cc2)C(=O)O1 (single isomer, unassigned) [EXAMPLE 130 Isomer 2] | inhibition at 0.1111 µM (11β-HSD1 [2]): 87.7% |
| – | > 7.00 | – | CC[C@@H](c1ccc(Br)cc1)N1CCC(CCO)(c2ccc(F)cc2)OC1=O (single isomer, unassigned) [EXAMPLE 143 Isomer 2] | inhibition at 0.1 µM (11β-HSD1 [2]): 95.4% |
| – | > 7.00 | – | C[C@@H](c1ccc(Br)cc1)N1CC[C@](CC(O)CO)(c2ccc(F)cc2)OC1=O (single isomer, unassigned) [EXAMPLE 144 Isomer 2] | Average % inhibition at 111.1 nM (11β-HSD1 [1]; [5]): 96.6%; inhibition at 0.1 µM (11β-HSD1 [2]): 95.3% |
| 92.9 | > 7.00 | – | C=CCC1(c2cccs2)CCN([C@@H](C)c2ccc(Br)cc2)C(=O)O1 (single isomer, unassigned) [EXAMPLE 157 Isomer 2] | inhibition at 0.1111 µM (11β-HSD1 [2]): 90.7% |
| – | > 7.00 | – | C=CCC1(c2cccs2)CCN([C@@H](C)c2ccc(-c3ccc(F)cc3)cc2)C(=O)O1 (single isomer, unassigned) [EXAMPLE 160 Isomer 2] | Average % inhibition at 111.1 nM (11β-HSD1 [1]; [5]): 95.2%; inhibition at 0.1 µM (11β-HSD1 [2]): 95.9% |
| 96.9 | – | > 7.00 | CC1CC(CCO)(c2ccc(F)cc2)OC(=O)N1[C@@H](C)c1ccc(Br)cc1 (single isomer, unassigned) [EXAMPLE 163 Isomer 2] | – |
| 11.3 | – | < 7.00 | CC1CC(CCO)(c2ccc(F)cc2)OC(=O)N1[C@@H](C)c1ccc(Br)cc1 (single isomer, unassigned) [EXAMPLE 163 Isomer 3] | – |
| 95.7 | – | > 7.00 | C[C@@H](c1ccc(-c2ccc(F)cc2F)cc1)N1CCC(CCCO)(c2cccs2)OC1=O (single isomer, unassigned) [EXAMPLE 171 Isomer 1] | – |
| 77.0 | – | > 7.00 | O=C1OC(CCCO)(c2ccccc2)CCN1C1CC1c1ccccc1 (single isomer, unassigned) [EXAMPLE 188 Isomer 1, 6-(3-hydroxypropyl)-6-phenyl-3-(2-phenylcyclopropyl)-1,3-oxazinan-2-one] | – |
| 31.7 | – | < 7.00 | O=C1OC(CCCO)(c2ccccc2)CCN1C1CC1c1ccccc1 (single isomer, unassigned) [EXAMPLE 188 Isomer 2, 6-(3-hydroxypropyl)-6-phenyl-3-(2-phenylcyclopropyl)-1,3-oxazinan-2-one] | – |
| 82.6 | > 7.00 | – | CC(C)C1(CCCO)CCN([C@@H](C)c2ccc(-c3ccc(F)cc3F)cc2)C(=O)O1 (single isomer, unassigned) [EXAMPLE 212 Isomer 2] | – |

| Average % inhibition at 100 nM (11β-HSD1 [1]; [3]) [%] | pIC50 (11β-HSD1 [1]; [4]) | pIC50 (11β-HSD1 [2]) | Compound | further results |
| --- | --- | --- | --- | --- |
| 95.6 | > 7.00 | – | CC(O)C[C@]1(c2ccccc2)CCN([C@@H](C)c2ccc(-c3ccc(F)cc3)cc2)C(=O)O1 (single isomer, unassigned) [EXAMPLE 224 Isomer 2] | – |
| – | > 7.00 | – | C[C@@H](c1ccc(Br)cc1)N1CCC(CCCO)(c2ccc(F)cc2)OC1=O (single isomer, unassigned) [EXAMPLE 227 Isomer 2] | – |
| 64.1 | > 7.00 | – | C[C@@H](c1ccc(-c2ccc(F)cc2F)cc1)N1CCC(CCO)(c2cccs2)OC1=O (single isomer, unassigned) [EXAMPLE 233 Isomer 2] | – |
| 89.5 | > 7.00 | – | CC[C@@H](c1ccc(Br)cc1)N1CC[C@](CC(O)CO)(c2ccccc2)OC1=O (single isomer, unassigned) [EXAMPLE 239 Isomer 2] | – |
| 89.3 | > 7.00 | – | CC[C@@H](c1ccc(Br)cc1)N1CC[C@](CC(O)CO)(c2ccc(F)cc2)OC1=O (single isomer, unassigned) [EXAMPLE 255 Isomer 2] | – |
| – | – | – | C[C@@H](c1ccc(-c2ccc(F)cc2)cc1)N1CC[C@](CC(O)CNS(C)(=O)=O)(c2ccc(F)cc2)OC1=O (single isomer, unassigned) [EXAMPLE 277 Isomer 2] | Average % inhibition at 100 nM (11β-HSD1 [1]; 0.1 µM): 65.6%; pIC50 (11β-HSD1 [1]): > 7.00 |
| 65.5 | > 7.00 | – | C[C@@H](c1ccc(-c2ccc(F)cc2)cc1)N1CC[C@](CC(O)CN(C)S(C)(=O)=O)(c2ccc(F)cc2)OC1=O (single isomer, unassigned) [EXAMPLE 278 Isomer 2] | – |
| – | > 7.00 | – | C[C@@H](c1ccc(Br)cc1)N1CCC(CCCO)(C(C)(C)C)OC1=O (single isomer, unassigned) [EXAMPLE 335 Isomer 2] | Average % inhibition at 100 nM (11β-HSD1 [1]; [6]): 96.7% |
| – | > 7.00 | – | C[C@@H](c1ccc(-c2ccc(F)cc2F)cc1)N1CCC(CCO)(C(C)(C)C)OC1=O (single isomer, unassigned) [EXAMPLE 336 Isomer 2] | Average % inhibition at 100 nM (11β-HSD1 [1]; [6]): 94.6% |
| – | > 7.00 | – | C[C@@H](c1ccc(Br)cc1)N1CCC(CCO)(c2ccc(F)cc2F)OC1=O (single isomer, unassigned) [EXAMPLE 365 Isomer 2] | Average % inhibition at 100 nM (11β-HSD1 [1]; [6]): 61.1% |
| – | > 7.00 | – | CC(O)C[C@]1(c2ccc(F)cc2)CCN([C@@H](C)c2ccc(Br)cc2)C(=O)O1 (single isomer, unassigned) [EXAMPLE 371 Isomer 2] | Average % inhibition at 100 nM (11β-HSD1 [1]; [6]): 97.4% |
| – | > 7.00 | – | CC(O)CC[C@]1(c2ccc(F)cc2)CCN([C@@H](C)c2ccc(Cl)cc2)C(=O)O1 (single isomer, unassigned) [EXAMPLE 383 Isomer 2] | Average % inhibition at 100 nM (11β-HSD1 [1]; [6]): 95.3% |
| – | > 7.00 | – | CC(O)C[C@]1(c2ccc(F)cc2)CCN([C@@H](C)c2ccc(C(F)(F)F)cc2)C(=O)O1 (single isomer, unassigned) [EXAMPLE 388 Isomer 2] | Average % inhibition at 100 nM (11β-HSD1 [1]; [6]): 94.7% |
| – | > 7.00 | – | CC(O)CC[C@]1(c2ccc(F)cc2)CCN([C@@H](C)c2ccc(F)cc2)C(=O)O1 (single isomer, unassigned) [EXAMPLE 411 Isomer 2] | Average % inhibition at 100 nM (11β-HSD1 [1]; [6]): 93.1% |
| – | > 7.00 | – | CC(C[C@]1(c2ccc(F)cc2)CCN([C@@H](C)c2ccc(Br)cc2)C(=O)O1)C(N)=O (single isomer, unassigned) [EXAMPLE 523 Isomer 2] | Average % inhibition at 100 nM (11β-HSD1 [1]; [6]): 85.4% |
| – | > 7.00 | – | CC(CO)C[C@]1(c2ccc(F)cc2)CCN([C@@H](C)c2ccc(Br)cc2)C(=O)O1 (single isomer, unassigned) [EXAMPLE 577 Isomer 2] | Average % inhibition at 100 nM (11β-HSD1 [1]; [6]): 94.7% |
| – | – | – | (R)-3-((S)-1-(2′,4′-difluorobiphenyl-4-yl)propyl)-6-(4-fluorophenyl)-6-(2-hydroxyethyl)-1,3-oxazinan-2-one [EXAMPLE 175 Isomer 2] | Average % inhibition at 111.1 nM (11β-HSD1 [1]): 25.8%; pIC50 (11β-HSD1 [1]): 6.00 to 7.00 |
| – | – | – | (R)-6-(3-hydroxypropyl)-3-((S)-1-(4-methoxyphenyl)ethyl)-6-phenyl-1,3-oxazinan-2-one [EXAMPLE 282 Isomer 1] | Average % inhibition at 100 nM (11β-HSD1 [1]): 94.0%; pIC50 (11β-HSD1 [1]): > 7.00 |
| – | – | – | (S)-3-((S)-1-(2′,4′-difluorobiphenyl-4-yl)propyl)-6-(4-fluorophenyl)-6-(2-hydroxyethyl)-1,3-oxazinan-2-one [EXAMPLE 175 Isomer 1] | Average % inhibition at 111.1 nM (11β-HSD1 [1]): 93.7%; pIC50 (11β-HSD1 [1]): > 7.00 |
| – | – | – | (S)-6-(3-hydroxypropyl)-3-((S)-1-(4-methoxyphenyl)ethyl)-6-phenyl-1,3-oxazinan-2-one [EXAMPLE 282 Isomer 2] | Average % inhibition at 100 nM (11β-HSD1 [1]): 77.8%; pIC50 (11β-HSD1 [1]): > 7.00 |

| Compound | Average % inhibition at 100 nM (11β-HSD1 [1]; [3]) [%] | pIC50 (11β-HSD1 [1]; [4]) | pIC50 (11β-HSD1 [2]) | further results |
| --- | --- | --- | --- | --- |
| CC(C)C1(CCCO)CCN([C@@H](C)c2ccc(Cl)cc2)C(=O)O1 (single isomer, unassigned) [EXAMPLE 187 Isomer 1] | – | – | > 7.00 | Average % inhibition at 100 nM (11β-HSD1 [1]; 0.1 µM): 98.7% |
| C=CCCC1(c2ccc(F)cc2)CCN([C@@H](C)c2ccc(OC(F)F)cc2)C(=O)O1 (single isomer, unassigned) [EXAMPLE 323 Isomer 2] | – | > 7.00 | – | Average % inhibition at 100 nM (11β-HSD1 [1]; 0.1 µM): 100.9% |
